Test results taken from paper PMC5917001, “Counter-ion effect on antistaphylococcal activity and cytotoxicity of selected antimicrobial peptides” (Amino Acids, 2018).
Where no end group is shown, it is not given here.

Tests used:
[1] = tested on: S. aureus (29): reference (5) and clinical (24) strains; conditions: for Mean value of MIC: mean over 29 S. aureus strains (Table 5); for Mean MIC values: mean over 29 S. aureus strains, as repeated in Table 6
Experimental: Microbiological assays were performed using reference and clinical strains of Staphylococcus aureus. Minimal inhibitory concentrations (MIC) were determined by broth microdilution method on 96-well polystyrene plates according to Clinical and Laboratory Standards Institute (CLSI) recommendations [Clinical and Laboratory Standards Institute (CLSI) [2012]]. […] All plates were incubated for 18 h at 37 °C. […] Reference strains of S. aureus: ATCC 6538, ATCC 6538/P, ATCC 9144, ATCC 12598, and ATCC 25923 were obtained from the Polish Collection of Microorganisms (PCM, Polish Academy of Sciences, Wrocław), whereas 24 clinical strains were isolated from the patients of the Clinic of Dermatology, Venereology and Allergology (Medical University of Gdańsk). Nine strains were characterized as methicillin-resistant (MRSA). Preliminary identification and detection was conducted on the ChromID MRSA/ChromID S. aureus biplate (bioMérieux) for the simultaneous detection of S. aureus and methicillin-resistant S. aureus (MRSA). All experiments were conducted at least in triplicate.
To asses an overall activity of peptides, the mean MIC values were calculated.

[2] = tested on: human red blood cells (RBCs)
Experimental: Fresh human red blood cells (RBCs) with EDTA as anticoagulant were rinsed three times with phosphate-buffer saline (PBS) by centrifugation at 800 × g for 10 min and resuspended in PBS. […] Then, the stock solution of RBCs was added to reach a final volume of 100 µL with 4% concentration of erythrocytes (v/v). The control wells for 0% hemolysis and 100% hemolysis consisted of RBCs suspended in PBS and 1% of Triton X–100, respectively. Subsequently, the plates were incubated for 60 min at 37 °C and then centrifuged at 800 × g for 10 min at 4 °C (Sorvall ST 16R Centrifuge, Thermo Scientific). After centrifugation, the supernatant was carefully resuspended to new microtiter plates and the release of hemoglobin was monitored by measurement of absorbance at 540 nm (Multiskan™ GO Microplate Spectrophotometer, Thermo Scientific). All experiments were conducted in triplicate.

[3] = prolonged storage; in words; ref Nayan Desai [2013]; cited from earlier work
[4] = tested on: S. aureus 001N (MRSA); format: cell-based, Staphylococcus aureus; conditions: clinical strain, broth microdilution, 0.5 × 10^5 CFU/mL, 18 h, 37 °C, at least triplicate
Experimental: (§1) Microbiological assays were performed using reference and clinical strains of Staphylococcus aureus. Minimal inhibitory concentrations (MIC) were determined by broth microdilution method on 96-well polystyrene plates according to Clinical and Laboratory Standards Institute (CLSI) recommendations [Clinical and Laboratory Standards Institute (CLSI) [2012]]. For this purpose, the initial inoculums of 0.5 × 10^5 CFU/mL of bacteria were exposed to a range of concentrations of the peptides (0.5–256 µg/mL). All plates were incubated for 18 h at 37 °C. MIC was taken as the lowest concentration of the compound at which the growth of bacteria was not observed. Reference strains of S. aureus: ATCC 6538, ATCC 6538/P, ATCC 9144, ATCC 12598, and ATCC 25923 were obtained from the Polish Collection of Microorganisms (PCM, Polish Academy of Sciences, Wrocław), whereas 24 clinical strains were isolated from the patients of the Clinic of Dermatology, Venereology and Allergology (Medical University of Gdańsk). Nine strains were characterized as methicillin-resistant (MRSA). Preliminary identification and detection was conducted on the ChromID MRSA/ChromID S. aureus biplate (bioMérieux) for the simultaneous detection of S. aureus and methicillin-resistant S. aureus (MRSA). All experiments were conducted at least in triplicate.

[5] = tested on: S. aureus 001S (MRSA); format: cell-based, Staphylococcus aureus; conditions: clinical strain, broth microdilution, 0.5 × 10^5 CFU/mL, 18 h, 37 °C, at least triplicate
Experimental: as §1

[6] = tested on: S. aureus 002N; format: cell-based, Staphylococcus aureus; conditions: clinical strain, broth microdilution, 0.5 × 10^5 CFU/mL, 18 h, 37 °C, at least triplicate
Experimental: as §1

[7] = tested on: S. aureus 002S; format: cell-based, Staphylococcus aureus; conditions: clinical strain, broth microdilution, 0.5 × 10^5 CFU/mL, 18 h, 37 °C, at least triplicate
Experimental: as §1

[8] = tested on: S. aureus 004N (MRSA); format: cell-based, Staphylococcus aureus; conditions: clinical strain, broth microdilution, 0.5 × 10^5 CFU/mL, 18 h, 37 °C, at least triplicate
Experimental: as §1

[9] = tested on: S. aureus 005S; format: cell-based, Staphylococcus aureus; conditions: clinical strain, broth microdilution, 0.5 × 10^5 CFU/mL, 18 h, 37 °C, at least triplicate
Experimental: as §1

[10] = tested on: S. aureus 013S; format: cell-based, Staphylococcus aureus; conditions: clinical strain, broth microdilution, 0.5 × 10^5 CFU/mL, 18 h, 37 °C, at least triplicate
Experimental: as §1

[11] = tested on: S. aureus 015N (MRSA); format: cell-based, Staphylococcus aureus; conditions: clinical strain, broth microdilution, 0.5 × 10^5 CFU/mL, 18 h, 37 °C, at least triplicate
Experimental: as §1

[12] = tested on: S. aureus 017N (MRSA); format: cell-based, Staphylococcus aureus; conditions: clinical strain, broth microdilution, 0.5 × 10^5 CFU/mL, 18 h, 37 °C, at least triplicate
Experimental: as §1

[13] = tested on: S. aureus 017S (MRSA); format: cell-based, Staphylococcus aureus; conditions: clinical strain, broth microdilution, 0.5 × 10^5 CFU/mL, 18 h, 37 °C, at least triplicate
Experimental: as §1

[14] = tested on: S. aureus 024N (MRSA); format: cell-based, Staphylococcus aureus; conditions: clinical strain, broth microdilution, 0.5 × 10^5 CFU/mL, 18 h, 37 °C, at least triplicate
Experimental: as §1

[15] = tested on: S. aureus 030N; format: cell-based, Staphylococcus aureus; conditions: clinical strain, broth microdilution, 0.5 × 10^5 CFU/mL, 18 h, 37 °C, at least triplicate
Experimental: as §1

[16] = tested on: S. aureus 033N; format: cell-based, Staphylococcus aureus; conditions: clinical strain, broth microdilution, 0.5 × 10^5 CFU/mL, 18 h, 37 °C, at least triplicate
Experimental: as §1

[17] = tested on: S. aureus 039N; format: cell-based, Staphylococcus aureus; conditions: clinical strain, broth microdilution, 0.5 × 10^5 CFU/mL, 18 h, 37 °C, at least triplicate
Experimental: as §1

[18] = tested on: S. aureus 043SC (MRSA); format: cell-based, Staphylococcus aureus; conditions: clinical strain, broth microdilution, 0.5 × 10^5 CFU/mL, 18 h, 37 °C, at least triplicate
Experimental: as §1

[19] = tested on: S. aureus 045N; format: cell-based, Staphylococcus aureus; conditions: clinical strain, broth microdilution, 0.5 × 10^5 CFU/mL, 18 h, 37 °C, at least triplicate
Experimental: as §1

[20] = tested on: S. aureus 048S; format: cell-based, Staphylococcus aureus; conditions: clinical strain, broth microdilution, 0.5 × 10^5 CFU/mL, 18 h, 37 °C, at least triplicate
Experimental: as §1

[21] = tested on: S. aureus 051N (MRSA); format: cell-based, Staphylococcus aureus; conditions: clinical strain, broth microdilution, 0.5 × 10^5 CFU/mL, 18 h, 37 °C, at least triplicate
Experimental: as §1

[22] = tested on: S. aureus 051S; format: cell-based, Staphylococcus aureus; conditions: clinical strain, broth microdilution, 0.5 × 10^5 CFU/mL, 18 h, 37 °C, at least triplicate
Experimental: as §1

[23] = tested on: S. aureus 053N; format: cell-based, Staphylococcus aureus; conditions: clinical strain, broth microdilution, 0.5 × 10^5 CFU/mL, 18 h, 37 °C, at least triplicate
Experimental: as §1

[24] = tested on: S. aureus 060S; format: cell-based, Staphylococcus aureus; conditions: clinical strain, broth microdilution, 0.5 × 10^5 CFU/mL, 18 h, 37 °C, at least triplicate
Experimental: as §1

[25] = tested on: S. aureus ATCC 12598; format: cell-based, Staphylococcus aureus; conditions: ATCC 12598, reference strain; broth microdilution, 0.5 × 10^5 CFU/mL, 18 h, 37 °C, at least triplicate
Experimental: as §1

[26] = tested on: S. aureus ATCC 25923; format: cell-based, Staphylococcus aureus; conditions: ATCC 25923, reference strain; broth microdilution, 0.5 × 10^5 CFU/mL, 18 h, 37 °C, at least triplicate
Experimental: as §1

[27] = tested on: S. aureus ATCC 6538/P; format: cell-based, Staphylococcus aureus; conditions: reference strain, broth microdilution, 0.5 × 10^5 CFU/mL, 18 h, 37 °C, at least triplicate
Experimental: as §1

[28] = tested on: S. aureus ATCC 6538; format: cell-based, Staphylococcus aureus; conditions: ATCC 6538, reference strain; broth microdilution, 0.5 × 10^5 CFU/mL, 18 h, 37 °C, at least triplicate
Experimental: as §1

[29] = tested on: S. aureus ATCC 9144; format: cell-based, Staphylococcus aureus; conditions: ATCC 9144, reference strain; broth microdilution, 0.5 × 10^5 CFU/mL, 18 h, 37 °C, at least triplicate
Experimental: as §1

[30] = tested on: S. aureus K19N; format: cell-based, Staphylococcus aureus; conditions: clinical strain, broth microdilution, 0.5 × 10^5 CFU/mL, 18 h, 37 °C, at least triplicate
Experimental: as §1

[31] = tested on: S. aureus K46N; format: cell-based, Staphylococcus aureus; conditions: clinical strain, broth microdilution, 0.5 × 10^5 CFU/mL, 18 h, 37 °C, at least triplicate
Experimental: as §1

[32] = tested on: S. aureus K50S; format: cell-based, Staphylococcus aureus; conditions: clinical strain, broth microdilution, 0.5 × 10^5 CFU/mL, 18 h, 37 °C, at least triplicate
Experimental: as §1

Substance | Mean value of MIC [1] [µg/mL] | MIC [4] [µg/mL] | MIC [5] [µg/mL] | MIC [6] | MIC [7] [µg/mL] | MIC [8] [µg/mL] | MIC [9] | MIC [10] | MIC [11] [µg/mL] | MIC [12] [µg/mL] | MIC [13] [µg/mL] | MIC [14] | MIC [15] [µg/mL] | MIC [16] [µg/mL] | MIC [17] [µg/mL] | MIC [18] [µg/mL] | MIC [19] [µg/mL] | MIC [20] [µg/mL] | MIC [21] [µg/mL] | MIC [22] [µg/mL] | further results
FLPLIGRVLSGIL-NH2 [Temporin A] | – | – | – | – | – | – | – | – | – | – | – | – | – | – | – | – | – | – | – | – | MIC range among strains ([1]; range over all S. aureus strains and the salts of the peptide): 2 to 8 µg/mL; hemolysis ([2]; at 256 µg/mL, human RBCs 4% (v/v) in PBS, 60 min, 37 °C, absorbance 540 nm, 100% = 1% Triton X-100, triplicate): ≤ 4%; hemolysis of RBCs ([2]; human RBCs, in words): almost undetectable
GIGKFLKKAKKFGKAFVKILKK-NH2 [Pexiganan AcO^−] | 7.1 | – | – | – | – | – | – | – | – | – | – | – | – | – | – | – | – | – | – | – | hemolysis of RBCs at the mean MIC value ([2]; human RBCs, at the mean MIC value, in words): ignorable; stability of the salt form [3]: the most stable even during prolonged storage
KWKLFKKIGAVLKVL-NH2 [CAMEL AcO^−] | ≤ 2.8 | 2 | 4 | 4 µg/mL | 4 | 4 | ≤ (≤ alone stands for MIC ≤ 0.25 µg/mL) | ≤ (≤ alone stands for MIC ≤ 0.25 µg/mL) | 4 | 2 | 2 | ≤ (≤ alone stands for MIC ≤ 0.25 µg/mL) | 4 | 4 | 4 | 4 | 4 | 4 | 2 | 2 | MIC [23]: 4 µg/mL; MIC [24]: 1 µg/mL; MIC [25]: 2 µg/mL; MIC [26]: 8 µg/mL; MIC [27]: 1 µg/mL; MIC [28]: ≤ (≤ alone stands for MIC ≤ 0.25 µg/mL); MIC [29]: 2 µg/mL; MIC [30]: 2 µg/mL; MIC [31]: 4 µg/mL; MIC [32]: 1 µg/mL; Mean MIC values [1]: ≤ 2.8 µg/mL
KWKLFKKIGAVLKVL-NH2 [CAMEL Cl^−] | ≤ 2.0 | 2 | 2 | ≤ (≤ alone stands for MIC ≤ 0.25 µg/mL) | 1 | 2 | ≤ (≤ alone stands for MIC ≤ 0.25 µg/mL) | ≤ (≤ alone stands for MIC ≤ 0.25 µg/mL) | 2 | 2 | 2 | ≤ (≤ alone stands for MIC ≤ 0.25 µg/mL) | 4 | 4 | 4 | 4 | 4 | 4 | 2 | 2 | MIC [23]: 4 µg/mL; MIC [24]: 1 µg/mL; MIC [25]: 1 µg/mL; MIC [26]: 2 µg/mL; MIC [27]: 1 µg/mL; MIC [28]: ≤ (≤ alone stands for MIC ≤ 0.25 µg/mL); MIC [29]: 1 µg/mL; MIC [30]: 1 µg/mL; MIC [31]: 4 µg/mL; MIC [32]: 1 µg/mL; Mean MIC values [1]: ≤ 2.0 µg/mL
KWKLFKKIGAVLKVL-NH2 [CAMEL TFA^−] | ≤ 3.5 | 4 | 4 | 4 µg/mL | 4 | 4 | ≤ (≤ alone stands for MIC ≤ 0.25 µg/mL) | ≤ (≤ alone stands for MIC ≤ 0.25 µg/mL) | 4 | 4 | 2 | ≤ (≤ alone stands for MIC ≤ 0.25 µg/mL) | 4 | 4 | 4 | 4 | 4 | 4 | 4 | 2 | MIC [23]: 4 µg/mL; MIC [24]: 2 µg/mL; MIC [25]: 4 µg/mL; MIC [26]: 8 µg/mL; MIC [27]: 4 µg/mL; MIC [28]: 2 µg/mL; MIC [29]: 8 µg/mL; MIC [30]: 4 µg/mL; MIC [31]: 4 µg/mL; MIC [32]: 1 µg/mL; Mean MIC values [1]: ≤ 3.5 µg/mL
